Experiments:
in vivo [1] = conditions: rat, plasma, po, 10 mg/kg
in vivo [2] = conditions: rat, plasma, iv, 2 mg/kg
[3] = In vivo PK after oral administration in rats, incl. brain and plasma levels; conditions: rat, oral 10 mg/kg; for Vd: sodium salt; for Brain: brain harvested at or near Tmax; for Plasma: plasma harvested at or near Tmax
in vivo [4] = conditions: rat, plasma, ip, 10 mg/kg

SMILES	AUC(0-t) (in vivo [1]) [µM·h]	AUC(0-t) (in vivo [2]) [µM·h]	Vd [3] [mL]	Brain [3] [µM]	Plasma [3] [µM]	AUC(0-t) (in vivo [4]) [µM·h]
O=C(O)c1cc(-c2cccc(COc3ccc4c(c3)CN(C3CCCC3)C4=O)c2)ccc1Cl [Compound 2]	42.5	11.8				
O=C(O)c1cc(-c2cccc(COc3ccc4c(=O)n(C5CC5)sc4c3)c2)ccc1Cl [Compound 3e, 4-Chloro-3'-((2-cyclopropyl-3-oxo-2,3-dihydrobenzo[d]isothiazol-6-yloxy)methyl)biphenyl-3-carboxylic acid]	61.5		4.1	0.03 ± 0.01	0.8 ± 0.2	
COc1ccc(C(=O)O)cc1-c1cccc(COc2ccc3c(c2)CN(C2CCCC2)C3=O)c1 [Compound 15a, 3'-((2-Cyclopentyl-1-oxoisoindolin-5-yloxy)methyl)-6-methoxybiphenyl-3-carboxylic acid]	12		10875.2	0.18 ± 0.01	1.46 ± 0.29	
O=C(O)c1cc(-c2cccc(-c3ccc4c(c3)CN(C3CCCC3)C4=O)c2)ccc1Cl [Compound 24, 4-Chloro-3'-(2-cyclopentyl-1-oxoisoindolin-5-yl)biphenyl-3-carboxylic acid]	2.67		96.2			3.23
O=C(O)c1cc(-c2cccc(COc3ccc4c(c3)CN(C3CCCC3)C4=O)c2)ccc1O [Compound 15b, 3'-((2-Cyclopentyl-1-oxoisoindolin-5-yloxy)methyl)-4-hydroxybiphenyl-3-carboxylic acid]	7.1	2.57	28.0	0.0071 ± 0.0004	0.21 ± 0.046	

Reference: article PMC3508153 (Journal of medicinal chemistry, 2012)
